According to patent US20080138462A1, “Lactobacillus buchneri strain LN5665 and its use to improve aerobic stability of silage” (Pioneer Hi-Bred International, Inc., priority 2006, published 2008):

Experiment: Aerobic stability of grass silage (PVC silos, method of Honig)
Design: species or system ryegrass
Protocol: Second cut ryegrass was harvested at PLNC. The grass was determined to have an approximate dry matter of 35%.
Inoculation: Individual strains were supplied as fresh grown overnight culture. Cultures were adjusted to a standard concentration of 5.0×10^7 CFU/mL and applied using a syringe at a rate of 2.2 mL/kg of forage. The application rate for all strains was 1.1×10^5 CFU/g forage. Propionic acid (88%) was applied at a rate of 4.4 mL/kg fresh forage.
PVC Silos: PVC silos were filled at a packing density of 0.288 kg DM/silo (100 kg DM/m^3); approximately 0.82-0.95 kg/silo. Silos were air infused for 24 hours on days 28 and 42, and opened after 50-60 days of ensiling.
Aerobic Stability: The method of Honig (Proc. Of the Eurobac. Conf., P. Lingvall and S. Lindgren (ed.) (12-16 Aug. 1986) Swed. Univ. of Agric. Sci. Grass and Forage Report No. 3-1990. Pp. 76-81. Uppsala, Sweden.) was used for measuring aerobic stability (see Table 1). ROT is defined as the time, in hours, for the silage to heat 1.7° C. after exposure to air. Cumm_DD is the integral value of the area between the time ROT is attained and the end of the experiment. Aerobic dry matter loss (% dry matter) was determined relating the increase in temperature and the time to energy losses occurring in the silage.

CCC(=O)O [Propionic Acid, Propionic acid]
Aerobic deterioration compared with control grass silages: significantly less aerobic deterioration
